Data taken from ChEMBL document CHEMBL5500408, “A New Gramicidin S Analogue with Potent Antibacterial Activity and Negligible Hemolytic Toxicity” (J Med Chem, 2024).
≈ marks a conversion by molar mass, not a printed value. Residues, ends and D or L forms follow the SMILES beside them.

Key:
Staphylococcus aureus [1] = assay: Antibacterial activity against methicillin-sensitive Staphylococcus aureus ATCC 49775 incubated for 16 to 20 hrs by CLSI based broth microdilution method; type: functional; settings: time 16-20 hrs
[2] = Hemolytic activity in sheep erythrocytes incubated for 30 mins by absorbance based assay; type: toxicity, cell-based, Ovis aries, Erythrocyte
Staphylococcus aureus [3] = assay: Antibacterial activity against methicillin-resistant Staphylococcus aureus […] incubated for 16 to 20 hrs by CLSI based broth microdilution method; type: functional; settings: time 16-20 hrs
Staphylococcus aureus [4] = assay: Antibacterial activity against methicillin-sensitive Staphylococcus aureus ATCC 29213 incubated for 16 to 20 hrs by CLSI based broth microdilution method; type: functional; settings: time 16-20 hrs
Staphylococcus aureus [5] = assay: Antibacterial activity against methicillin-resistant Staphylococcus aureus ATCC USA300 incubated for 16 to 20 hrs by CLSI based broth microdilution method; type: functional; settings: time 16-20 hrs
[6] = Retention time of the compound by RP-HPLC analysis; type: physicochemical
[7] = Nephrotoxicity against HEK293 cells assessed as cell viability at 12.5 uM incubated for 24 hrs by MTT assay relative to control; type: toxicity, cell-based; settings: human, read-out: Activity
HEK293 = assay: Nephrotoxicity against HEK293 cells at MIC incubated for 24 hrs by MTT assay; type: toxicity, cell-based; settings: human, hek293, 24 h

Structure (SMILES)	MIC (Staphylococcus aureus [1])	HC50 at 0.5 h [2]	MIC (Staphylococcus aureus [3])	MIC (Staphylococcus aureus [4])	MIC (Staphylococcus aureus [5])	Retention_time [6]	viability at 24 h, 12.5 µM [7]	Activity (HEK293)
CC(C)C[C@@H]1NC(=O)[C@H](CCCN)NC(=O)[C@H](C(C)C)NC(=O)[C@@H]2CCCN2C(=O)[C@@H](CCCNC(=N)N)NC(=O)[C@H](CC(C)C)NC(=O)[C@H](CCCN)NC(=O)[C@H](C(C)C)NC(=O)[C@@H]2CCCN2C(=O)[C@@H](CCCNC(=N)N)NC1=O	32 µg/mL (≈ 27.6 µM)	> 100 µM	16 µg/mL (≈ 13.8 µM)	16 µg/mL (≈ 13.8 µM)	32 µg/mL (≈ 27.6 µM)	14.56 min	–	–
CC(C)C[C@@H]1NC(=O)[C@H](CCCN)NC(=O)[C@H](C(C)C)NC(=O)[C@@H]2CCCN2C(=O)[C@@H](Cc2ccccc2)NC(=O)[C@H](CC(C)C)NC(=O)[C@H](CCCN)NC(=O)[C@H](C(C)C)NC(=O)[C@@H]2CCCN2C(=O)[C@@H](Cc2ccccc2)NC1=O [GRAMICIDIN S] (HELM PEPTIDE1{L.[dF].P.V.[Orn].L.[dF].P.V.[Orn]}$PEPTIDE1,PEPTIDE1,1:R1-10:R2$$$V2.0)	4 µg/mL (≈ 3.5 µM)	60.1 µM	4 µg/mL (≈ 3.5 µM)	4 µg/mL (≈ 3.5 µM)	4 µg/mL (≈ 3.5 µM)	18.57 min	25%	–
CC(C)C[C@@H]1NC(=O)[C@H](CCCN)NC(=O)[C@H](C(C)C)NC(=O)[C@@H]2CCCN2C(=O)[C@@H](Cc2ccccc2)NC(=O)[C@H](CC(C)C)NC(=O)[C@H](CCCN)NC(=O)[C@H](C(C)C)NC(=O)[C@@H]2CCCN2C(=O)[C@@H](CCCNC(=N)N)NC1=O (HELM PEPTIDE1{L.[dF].P.V.[Orn].L.[dR].P.V.[Orn]}$PEPTIDE1,PEPTIDE1,1:R1-10:R2$$$V2.0)	8 µg/mL (≈ 6.95 µM)	> 100 µM	8 µg/mL (≈ 6.95 µM)	8 µg/mL (≈ 6.95 µM)	8 µg/mL (≈ 6.95 µM)	16.22 min	~90%	Non-Toxic
CC(C)C[C@@H]1NC(=O)[C@H](CCCN)NC(=O)[C@H](C(C)C)NC(=O)[C@@H]2CCCN2C(=O)[C@@H](Cc2ccccc2)NC(=O)[C@H](CC(C)C)NC(=O)[C@H](CCCNC(=N)N)NC(=O)[C@H](C(C)C)NC(=O)[C@@H]2CCCN2C(=O)[C@@H](Cc2ccccc2)NC1=O	4 µg/mL (≈ 3.38 µM)	46.2 µM	16 µg/mL (≈ 13.5 µM)	8 µg/mL (≈ 6.76 µM)	8 µg/mL (≈ 6.76 µM)	18.74 min	–	–
CC(C)C[C@@H]1NC(=O)[C@H](CCCN)NC(=O)[C@H](C(C)C)NC(=O)[C@@H]2CCCN2C(=O)[C@@H](Cc2c[nH]cn2)NC(=O)[C@H](CC(C)C)NC(=O)[C@H](CCCN)NC(=O)[C@H](C(C)C)NC(=O)[C@@H]2CCCN2C(=O)[C@@H](Cc2c[nH]cn2)NC1=O	256 µg/mL (≈ 228 µM)	> 100 µM	256 µg/mL (≈ 228 µM)	256 µg/mL (≈ 228 µM)	> 256 µg/mL	14.01 min	–	–
CC(C)C[C@@H]1NC(=O)[C@H](CCCNC(=N)N)NC(=O)[C@H](C(C)C)NC(=O)[C@@H]2CCCN2C(=O)[C@@H](Cc2ccccc2)NC(=O)[C@H](CC(C)C)NC(=O)[C@H](CCCNC(=N)N)NC(=O)[C@H](C(C)C)NC(=O)[C@@H]2CCCN2C(=O)[C@@H](Cc2ccccc2)NC1=O	8 µg/mL (≈ 6.53 µM)	25.4 µM	8 µg/mL (≈ 6.53 µM)	8 µg/mL (≈ 6.53 µM)	8 µg/mL (≈ 6.53 µM)	18.62 min	–	–
CC(C)C[C@@H]1NC(=O)[C@H](CCCN)NC(=O)[C@H](C(C)C)NC(=O)[C@@H]2CCCN2C(=O)[C@@H](Cc2ccccc2)NC(=O)[C@H](CC(C)C)NC(=O)[C@H](CCCNC(=N)N)NC(=O)[C@H](C(C)C)NC(=O)[C@@H]2CCCN2C(=O)[C@@H](CCCNC(=N)N)NC1=O (HELM PEPTIDE1{L.[dF].P.V.[Orn].L.[dR].P.V.R}$PEPTIDE1,PEPTIDE1,1:R1-10:R2$$$V2.0)	8 µg/mL (≈ 6.71 µM)	87.2 µM	8 µg/mL (≈ 6.71 µM)	8 µg/mL (≈ 6.71 µM)	8 µg/mL (≈ 6.71 µM)	16.47 min	–	–
CC(C)C[C@@H]1NC(=O)[C@H](CCCN)NC(=O)[C@H](C(C)C)NC(=O)[C@H](Cc2c[nH]cn2)NC(=O)[C@@H](Cc2ccccc2)NC(=O)[C@H](CC(C)C)NC(=O)[C@H](CCCN)NC(=O)[C@H](C(C)C)NC(=O)[C@H](Cc2c[nH]cn2)NC(=O)[C@@H](Cc2ccccc2)NC1=O	64 µg/mL (≈ 52.4 µM)	> 100 µM	64 µg/mL (≈ 52.4 µM)	64 µg/mL (≈ 52.4 µM)	128 µg/mL (≈ 105 µM)	14.74 min	–	–
CC(C)C[C@@H]1NC(=O)[C@H](CCCNC(=N)N)NC(=O)[C@H](C(C)C)NC(=O)[C@@H]2CCCN2C(=O)[C@@H](Cc2ccccc2)NC(=O)[C@H](CC(C)C)NC(=O)[C@H](CCCN)NC(=O)[C@H](C(C)C)NC(=O)[C@@H]2CCCN2C(=O)[C@@H](CCCNC(=N)N)NC1=O	8 µg/mL (≈ 6.71 µM)	> 100 µM	8 µg/mL (≈ 6.71 µM)	8 µg/mL (≈ 6.71 µM)	8 µg/mL (≈ 6.71 µM)	16.47 min	–	–
CC(C)C[C@@H]1NC(=O)[C@H](CCCNC(=N)N)NC(=O)[C@H](C(C)C)NC(=O)[C@@H]2CCCN2C(=O)[C@@H](Cc2c[nH]cn2)NC(=O)[C@H](CC(C)C)NC(=O)[C@H](CCCN)NC(=O)[C@H](C(C)C)NC(=O)[C@@H]2CCCN2C(=O)[C@@H](Cc2ccccc2)NC1=O	16 µg/mL (≈ 13.6 µM)	> 100 µM	16 µg/mL (≈ 13.6 µM)	16 µg/mL (≈ 13.6 µM)	16 µg/mL (≈ 13.6 µM)	16.09 min	–	–
